Literature values, collected in patent EP2610673B1, “Method for manufacturing lithographic printing plates” (FUJIFILM Corporation, priority 2011, dated 2013).

| Structure (SMILES) | solubility in 20°C water |
| --- | --- |
| CC(C)CC(C)O (stereo not shown) [4-methyl-2-pentanol] | 2.0 g/100 mL |
| CCCC(C)O (stereo not shown) [Example 2-pentanol, 2-pentanol] | 4.5 g/100 mL |
| CC(C)CCO [3-methyl-1-butanol] | 2.7 g/100 mL |
| CCCCCO [Example 1-pentanol, 1-pentanol] | 2.7 g/100 mL |
| CCC(C)CO (stereo not shown) [2-methyl-1-butanol] | 3.0 g/100 mL |
| CC(C)C(C)O (stereo not shown) [3-methyl-2-butanol] | 5.6 g/100 mL |
| CC(=O)OC(C)C [isopropyl acetate] | 4.3 g/100 mL |

Now from value to molecule:

| solubility in 20°C water | Structure (SMILES) |
| --- | --- |
| 6.5 g/100 mL | CCCCOCCOCCOC(C)=O [diethylene glycol monobutyl ether acetate] |
| 4.4 g/100 mL | CCCCOCC(C)O (stereo not shown) [propylene glycol mono-n-butyl ether] |
| 1.6 g/100 mL | CCCOC(C)=O [propyl acetate] |
| 5.2 g/100 mL | CCC(O)CC [Example 3-pentanol, 3-pentanol] |
| 3.5 g/100 mL | CC(C)(C)CO [neopentyl alcohol] |
| 4.0 g/100 mL | OCc1ccccc1 [benzyl alcohol] |
| 1.7 g/100 mL | CCC(=O)CC [diethyl ketone] |
| 4.0 g/100 mL | CCCC(C)=O [Example 2-pentanone, 2-pentanone] |
| 2.7 g/100 mL | OCCOc1ccccc1 [ethylene glycol monophenyl ether] |
